Data on 21 molecules can be found in US8148391B2 (Cephalon, Inc., priority 2006, dated 2012).

For assay [1], the target named is T1, c-Met (cytoplasmic domain) (Homo sapiens, UniProt P08581).
T1 construct: 10 ng/mL c-Met (cytoplasmic domain, Invitrogen Corporation #PV3143); purchased Invitrogen Corporation PV3143
The assay is described as follows: c-Met Kinase Assay (same methods as for ALK, with modifications). In kind it is biochemical. Conditions: 1 μM ATP (Km level); read-out: cMet Activity (c-Met Kinase Inhibition, IC50). The procedure, abridged: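 Plates were coated with phospholipase C-γ substrate (10 μg/mL) in TBS, and the reaction was started with 10 ng/mL c-Met cytoplasmic domain and run 15 min at 37 °C. Phosphoproduct was detected with Eu-N1-labelled PT66 antibody. IC50 came from a variable-slope sigmoidal fit of percent inhibition vs log concentration.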

Assay [2] deals with T2, baculovirus-expressed ALK (Homo sapiens, UniProt Q9UM73).
T2 construct: host or cells: baculovirus expression system
T2 sequence (Q9UM73 19-1620): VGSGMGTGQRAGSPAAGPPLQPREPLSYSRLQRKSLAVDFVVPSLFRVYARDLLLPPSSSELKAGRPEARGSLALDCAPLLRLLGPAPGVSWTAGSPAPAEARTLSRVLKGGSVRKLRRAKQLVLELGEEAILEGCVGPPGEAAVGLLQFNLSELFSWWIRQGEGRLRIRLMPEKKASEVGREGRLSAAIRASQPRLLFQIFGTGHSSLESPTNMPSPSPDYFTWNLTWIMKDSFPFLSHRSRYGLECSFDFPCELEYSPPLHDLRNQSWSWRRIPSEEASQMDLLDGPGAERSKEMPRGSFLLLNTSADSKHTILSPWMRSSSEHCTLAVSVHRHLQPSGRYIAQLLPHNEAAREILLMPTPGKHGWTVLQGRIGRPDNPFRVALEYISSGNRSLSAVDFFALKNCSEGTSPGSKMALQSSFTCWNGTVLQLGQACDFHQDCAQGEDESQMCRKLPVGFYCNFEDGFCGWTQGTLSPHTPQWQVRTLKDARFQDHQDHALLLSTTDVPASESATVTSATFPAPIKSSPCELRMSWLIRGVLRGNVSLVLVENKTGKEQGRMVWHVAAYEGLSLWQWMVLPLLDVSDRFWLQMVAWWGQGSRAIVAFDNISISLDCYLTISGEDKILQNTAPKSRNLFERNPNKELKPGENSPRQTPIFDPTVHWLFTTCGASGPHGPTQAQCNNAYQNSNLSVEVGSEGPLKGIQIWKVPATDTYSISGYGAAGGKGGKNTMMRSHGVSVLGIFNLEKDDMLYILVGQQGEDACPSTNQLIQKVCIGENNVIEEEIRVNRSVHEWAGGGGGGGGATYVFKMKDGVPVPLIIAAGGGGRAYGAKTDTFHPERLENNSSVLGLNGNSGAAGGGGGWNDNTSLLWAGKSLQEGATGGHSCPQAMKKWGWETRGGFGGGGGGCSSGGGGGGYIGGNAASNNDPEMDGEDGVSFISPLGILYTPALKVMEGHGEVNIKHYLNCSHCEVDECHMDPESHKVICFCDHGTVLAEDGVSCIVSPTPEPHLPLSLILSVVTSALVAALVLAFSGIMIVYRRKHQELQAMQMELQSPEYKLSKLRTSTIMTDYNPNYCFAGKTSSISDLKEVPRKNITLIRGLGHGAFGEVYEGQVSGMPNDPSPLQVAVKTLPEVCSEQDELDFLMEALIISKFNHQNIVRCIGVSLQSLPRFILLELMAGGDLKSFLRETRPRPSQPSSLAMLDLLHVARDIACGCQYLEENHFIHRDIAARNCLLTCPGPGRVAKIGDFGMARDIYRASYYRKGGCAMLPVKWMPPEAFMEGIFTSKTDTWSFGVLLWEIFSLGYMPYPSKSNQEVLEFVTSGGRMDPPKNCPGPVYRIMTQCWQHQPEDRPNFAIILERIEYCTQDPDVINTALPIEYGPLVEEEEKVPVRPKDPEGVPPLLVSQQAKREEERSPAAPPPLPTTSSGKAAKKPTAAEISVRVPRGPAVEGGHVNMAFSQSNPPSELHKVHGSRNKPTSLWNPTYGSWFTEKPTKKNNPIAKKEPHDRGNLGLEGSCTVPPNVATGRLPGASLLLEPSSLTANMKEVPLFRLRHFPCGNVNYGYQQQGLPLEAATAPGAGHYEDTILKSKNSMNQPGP
Kind of assay: ALK Kinase Assay (ELISA-type, time-resolved fluorescence). As to conditions: 1 μM ATP (Km level); read-out: ALK Activity (ALK Kinase Inhibition, IC50). Type of assay: biochemical. In a few lines: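 Plates coated with phospholipase C-γ substrate (10 μg/mL in TBS); reaction started with 30 ng/ml ALK and run 15 min at 37° C. Phosphorylated substrate detected with Eu-N1-labeled PT66 antibody. IC50 from sigmoidal variable-slope fit of percent inhibition vs log concentration.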
(In general: ELISA stands for enzyme-linked immunosorbent assay.)

T1 sequence (P08581 956-1390 limits assumed): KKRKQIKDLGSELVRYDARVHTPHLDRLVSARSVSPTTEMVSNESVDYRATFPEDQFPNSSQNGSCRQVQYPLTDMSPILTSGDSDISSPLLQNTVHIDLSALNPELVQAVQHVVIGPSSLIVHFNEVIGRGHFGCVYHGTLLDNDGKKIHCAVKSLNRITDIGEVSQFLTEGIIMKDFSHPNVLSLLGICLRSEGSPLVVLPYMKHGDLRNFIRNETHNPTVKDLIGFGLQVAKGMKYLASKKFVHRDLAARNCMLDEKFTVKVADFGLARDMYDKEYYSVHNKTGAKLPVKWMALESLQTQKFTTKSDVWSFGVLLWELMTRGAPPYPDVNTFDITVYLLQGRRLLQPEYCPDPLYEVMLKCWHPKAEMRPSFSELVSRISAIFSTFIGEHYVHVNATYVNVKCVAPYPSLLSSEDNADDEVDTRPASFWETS

The IC50 is the concentration at which inhibition is half-maximal. Regarding `COc1cc2c(cc1Nc1ncc(Cl)c(Nc3cc(Cl)ccc3OC)n1)CCN(CC(F)F)CC2` [Example 768, 5-Chloro-N*4*-(5-chloro-2-methoxy-phenyl)-N*2*-[3-(2,2-difluoro-ethyl)-8-methoxy-2,3,4,5-tetrahydro-1H-benzo[d]azepin-7-yl]-pyrimidine-2,4-diamine], the figures for the half-maximal inhibitory concentration (IC50) in assay [1] and in assay [2] were over 10000 nM and 100 to 1000 nM, respectively.

For the molecule `COc1cc2c(cc1Nc1ncc(F)c(NC3C4C=CC(C4)C3C(N)=O)n1)CCN(CC(F)F)CC2` (stereo not drawn) [Example 769, (2-exo,3-exo)-3-{2-[3-(2,2-Difluoro-ethyl)-8-methoxy-2,3,4,5-tetrahydro-1H-benzo[d]azepin-7-ylamino]-5-fluoro-pyrimidin-4-ylamino}-bicyclo[2.2.1]hept-5-ene-2-carboxylic acid amide], the half-inhibitory concentration (IC50) is over 10000 nM in assay [1] and 100 to 1000 nM in assay [2].

`COc1cc2c(cc1Nc1ncc(Cl)c(Nc3ccc(N4CCN(C)CC4)cc3OC)n1)CCN(CC(=O)N(C)C)CC2` [Example 770, 2-(7-{5-Chloro-4-[2-methoxy-4-(4-methyl-piperazin-1-yl)-phenylamino]-pyrimidin-2-ylamino}-8-methoxy-1,2,4,5-tetrahydro-benzo[d]azepin-3-yl)-N,N-dimethyl-acetamide]: the IC50 was over 10000 nM in assay [1] and under 100 nM in assay [2].

For `COc1cc2c(cc1Nc1ncc(Cl)c(Nc3ccc(N4CCN(C)CC4)cc3OC)n1)CCN(CCS(C)(=O)=O)CC2` [Example 771, 5-Chloro-N*2*-[3-(2-methanesulfonyl-ethyl)-8-methoxy-2,3,4,5-tetrahydro-1H-benzo[d]azepin-7-yl]-N*4*-[2-methoxy-4-(4-methyl-piperazin-1-yl)-phenyl]-pyrimidine-2,4-diamine], the IC50 in assay [1] is over 10000 nM; in assay [2], under 100 nM.

In the case of `CCN1CCc2cc(Nc3ncc(Cl)c(Nc4ccc(N5CCN(C)CC5)cc4OC)n3)c(OC)cc2CC1=O` [Example 772, 7-{5-Chloro-4-[2-methoxy-4-(4-methyl-piperazin-1-yl)-phenylamino]-pyrimidin-2-ylamino}-3-ethyl-8-methoxy-1,3,4,5-tetrahydro-benzo[d]azepin-2-one], the figures for the 50% inhibitory concentration (IC50) in assay [1] and in assay [2] were over 10000 nM and under 100 nM, respectively.

Consider `CCN1CCc2cc(Nc3ncc(Cl)c(N[C@H]4[C@@H](C(N)=O)[C@@H]5C=C[C@H]4C5)n3)c(OC)cc2CC1` [Example 773, (1S,2S,3R,4R)-3-[5-Chloro-2-(3-ethyl-8-methoxy-2,3,4,5-tetrahydro-1H-benzo[d]azepin-7-ylamino)-pyrimidin-4-ylamino]-bicyclo[2.2.1]hept-5-ene-2-carboxylic acid amide], for which the half-maximal inhibitory concentration (IC50) in assay [1] was over 10000 nM; in assay [2], under 100 nM.

On to `CCCN1CCc2cc(Nc3ncc(Cl)c(N[C@H]4[C@@H](C(N)=O)[C@@H]5C=C[C@H]4C5)n3)c(OC)cc2CC1` [Example 774, (1S,2S,3R,4R)-3-[5-Chloro-2-(8-methoxy-3-propyl-2,3,4,5-tetrahydro-1H-benzo[d]azepin-7-ylamino)-pyrimidin-4-ylamino]-bicyclo[2.2.1]hept-5-ene-2-carboxylic acid amide], for which the 50% inhibitory concentration (IC50) is over 10000 nM in assay [1] and under 100 nM in assay [2].

Take `COc1cc2c(cc1Nc1ncc(Cl)c(N[C@H]3[C@@H](C(N)=O)[C@@H]4C=C[C@H]3C4)n1)CCN(CC1CC1)CC2` [Example 775, (1S,2S,3R,4R)-3-[5-Chloro-2-(3-cyclopropylmethyl-8-methoxy-2,3,4,5-tetrahydro-1H-benzo[d]azepin-7-ylamino)-pyrimidin-4-ylamino]-bicyclo[2.2.1]hept-5-ene-2-carboxylic acid amide]: the results for the half-inhibitory concentration (IC50) in assay [1] and in assay [2] were over 10000 nM and under 100 nM, respectively.

Consider `COc1cc2c(cc1Nc1ncc(Cl)c(N[C@H]3[C@@H](C(N)=O)[C@@H]4C=C[C@H]3C4)n1)CCN(C(C)C)CC2` [Example 776, (1S,2S,3R,4R)-3-[5-Chloro-2-(3-isopropyl-8-methoxy-2,3,4,5-tetrahydro-1H-benzo[d]azepin-7-ylamino)-pyrimidin-4-ylamino]-bicyclo[2.2.1]hept-5-ene-2-carboxylic acid amide], for which the concentration for half-maximal inhibition (IC50) is over 10000 nM in assay [1] and under 100 nM in assay [2].

With `CCNC(=O)c1cccc(F)c1Nc1nc(Nc2cc3c(cc2OC)CCN(CC(F)F)CC3)ncc1Cl` [Example 777, 2-{5-Chloro-2-[3-(2,2-difluoro-ethyl)-8-methoxy-2,3,4,5-tetrahydro-1H-benzo[d]azepin-7-ylamino]-pyrimidin-4-ylamino}-N-ethyl-3-fluoro-benzamide], the IC50 in assay [1] is 1000 to 10000 nM; in assay [2], under 100 nM.

In the case of `COc1cc2c(cc1Nc1ncc(Cl)c(Nc3ccc(N4CCN(C)CC4)cc3OC)n1)CCNC(=O)C2` [Example 778, 7-{5-Chloro-4-[2-methoxy-4-(4-methyl-piperazin-1-yl)-phenylamino]-pyrimidin-2-ylamino}-8-methoxy-1,3,4,5-tetrahydro-benzo[d]azepin-2-one], the half-inhibitory concentration (IC50) in assay [1] was over 10000 nM; in assay [2] it was under 100 nM.

Regarding `COc1cc2c(cc1Nc1ncc(Cl)c(Nc3ccc(N4CCN(C)CC4)c(C)c3)n1)CCN(CC(C)(F)F)CC2` [Example 779, 5-Chloro-N*2*-[3-(2,2-difluoro-propyl)-8-methoxy-2,3,4,5-tetrahydro-1H-benzo[d]azepin-7-yl]-N*4*-[3-methyl-4-(4-methyl-piperazin-1-yl)-phenyl]-pyrimidine-2,4-diamine], the IC50 in assay [1] is over 10000 nM; in assay [2] it was under 100 nM.

For `COc1cc2c(cc1Nc1ncc(Cl)c(Nc3ccc(N4CCOCC4)cc3OC)n1)CCN(CC(C)(F)F)CC2` [Example 780, 5-Chloro-N*2*-[3-(2,2-difluoro-propyl)-8-methoxy-2,3,4,5-tetrahydro-1H-benzo[d]azepin-7-yl]-N*4*-(2-methoxy-4-morpholin-4-yl-phenyl)-pyrimidine-2,4-diamine], the results for the IC50 in assay [1] and in assay [2] were over 10000 nM and 100 to 1000 nM, respectively.

As to `COc1cc2c(cc1Nc1ncc(Cl)c(Nc3ccc(N4CCN(C)CC4)cc3OC)n1)CCN(CC(C)(F)F)CC2` [Example 781, 5-Chloro-N*2*-[3-(2,2-difluoro-propyl)-8-methoxy-2,3,4,5-tetrahydro-1H-benzo[d]azepin-7-yl]-N*4*-[2-methoxy-4-(4-methyl-piperazin-1-yl)-phenyl]-pyrimidine-2,4-diamine], the IC50 in assay [1] is over 10000 nM; in assay [2], under 100 nM.

Turning to `COc1cc2c(cc1Nc1ncc(Cl)c(N[C@H]3[C@@H](C(N)=O)[C@@H]4C=C[C@H]3C4)n1)CCN(CC(C)(F)F)CC2` [Example 782, (1S,2S,3R,4R)-3-{5-Chloro-2-[3-(2,2-difluoro-propyl)-8-methoxy-2,3,4,5-tetrahydro-1H-benzo[d]azepin-7-ylamino]-pyrimidin-4-ylamino}-bicyclo[2.2.1]hept-5-ene-2-carboxylic acid amide], the half-inhibitory concentration (IC50) in assay [1] is over 10000 nM; in assay [2], under 100 nM.

With `CNC(=O)CN1CCc2cc(Nc3ncc(Cl)c(Nc4ccc(N5CCN(C)CC5)cc4OC)n3)c(OC)cc2CC1` [Example 783, 2-(7-{5-Chloro-4-[2-methoxy-4-(4-methyl-piperazin-1-yl)-phenylamino]-pyrimidin-2-ylamino}-8-methoxy-1,2,4,5-tetrahydro-benzo[d]azepin-3-yl)-N-methyl-acetamide], the results for the IC50 in assay [1] and in assay [2] were over 10000 nM and under 100 nM, respectively.

For the molecule `COc1cc2c(cc1Nc1ncc(Cl)c(N[C@@H]3CCCC[C@H]3NS(C)(=O)=O)n1)CCN(CC(C)(F)F)CC2` [Example 784, N-((1R,2R)-2-{5-Chloro-2-[3-(2,2-difluoro-propyl)-8-methoxy-2,3,4,5-tetrahydro-1H-benzo[d]azepin-7-ylamino]-pyrimidin-4-ylamino}-cyclohexyl)-methanesulfonamide], the IC50 in assay [1] was over 10000 nM; in assay [2], under 100 nM.

On to `COc1cc2c(cc1Nc1ncc(Cl)c(Nc3cc(Cl)ccc3OC)n1)CCN(CC(C)(F)F)CC2` [Example 785, 5-Chloro-N*4*-(5-chloro-2-methoxy-phenyl)-N*2*-[3-(2,2-difluoro-propyl)-8-methoxy-2,3,4,5-tetrahydro-1H-benzo[d]azepin-7-yl]-pyrimidine-2,4-diamine], for which the half-maximal inhibitory concentration (IC50) in assay [1] is over 10000 nM; in assay [2] it was 100 to 1000 nM.

Consider `CNC(=O)c1ccccc1Nc1nc(Nc2cc3c(cc2OC)CCN(CC(C)(F)F)CC3)ncc1Cl` [Example 786, 2-{5-Chloro-2-[3-(2,2-difluoro-propyl)-8-methoxy-2,3,4,5-tetrahydro-1H-benzo[d]azepin-7-ylamino]-pyrimidin-4-ylamino}-N-methyl-benzamide], for which the IC50 is over 10000 nM in assay [1] and under 100 nM in assay [2].

For `CCNC(=O)c1ccccc1Nc1nc(Nc2cc3c(cc2OC)CCN(CC(C)(F)F)CC3)ncc1Cl` [Example 788, 2-{5-Chloro-2-[3-(2,2-difluoro-propyl)-8-methoxy-2,3,4,5-tetrahydro-1H-benzo[d]azepin-7-ylamino]-pyrimidin-4-ylamino}-N-ethyl-benzamide], the IC50 was over 10000 nM in assay [1] and under 100 nM in assay [2].

As to `CCNC(=O)c1cccc(F)c1Nc1nc(Nc2cc3c(cc2OC)CCN(CC(C)(F)F)CC3)ncc1Cl` [Example 789, 2-{5-Chloro-2-[3-(2,2-difluoro-propyl)-8-methoxy-2,3,4,5-tetrahydro-1H-benzo[d]azepin-7-ylamino]-pyrimidin-4-ylamino}-N-ethyl-3-fluoro-benzamide], the values for the IC50 in assay [1] and in assay [2] were 1000 to 10000 nM and under 100 nM, respectively.
